In ChEMBL document CHEMBL5154936, “Scaffold Hopping Strategy to Identify Prostanoid EP4 Receptor Antagonists for Cancer Immunotherapy” (J Med Chem, 2022):

Assays:
[1] = biological target: Prostaglandin E2 receptor EP4 subtype (Homo sapiens, UniProt P35408); assay: Antagonist activity at human EP4 receptor transfected in CHO/Galpha16 cells preincubated for 15 mins followed by PGE2 addition by calcium flux assay; format: functional, cell-based
[2] = test system: EMT6; assay: Cytotoxicity against mouse EMT6 cells assessed as reduction in cell viability incubated for 72 hrs by CCK-8 assay; conditions: EMT6, 72 h
[3] = test system: 3LL cell line; assay: Cytotoxicity against mouse 3LL cells assessed as reduction in cell viability incubated for 72 hrs by CCK-8 assay
[4] = biological target: CYP2C9 (Homo sapiens, UniProt P11712); assay: Inhibition of CYP2C9 (unknown origin) at 20 uM; format: ADME
[5] = biological target: Prostaglandin E2 receptor EP4 subtype (Mus musculus, UniProt P32240); assay: Antagonist activity at mouse EP4 receptor transfected in CHO/Galpha16 cells preincubated for 15 mins followed by PGE2 addition by calcium flux assay; format: functional, cell-based
[6] = biological target: T1, Prostaglandin E2 receptor EP1 subtype (Homo sapiens, UniProt P34995); assay: Antagonist activity at human EP1 receptor transfected in CHO/Galpha16 cells preincubated for 15 mins followed by PGE2 addition by calcium flux assay; format: functional, cell-based
T1 sequence (P34995 whole entry): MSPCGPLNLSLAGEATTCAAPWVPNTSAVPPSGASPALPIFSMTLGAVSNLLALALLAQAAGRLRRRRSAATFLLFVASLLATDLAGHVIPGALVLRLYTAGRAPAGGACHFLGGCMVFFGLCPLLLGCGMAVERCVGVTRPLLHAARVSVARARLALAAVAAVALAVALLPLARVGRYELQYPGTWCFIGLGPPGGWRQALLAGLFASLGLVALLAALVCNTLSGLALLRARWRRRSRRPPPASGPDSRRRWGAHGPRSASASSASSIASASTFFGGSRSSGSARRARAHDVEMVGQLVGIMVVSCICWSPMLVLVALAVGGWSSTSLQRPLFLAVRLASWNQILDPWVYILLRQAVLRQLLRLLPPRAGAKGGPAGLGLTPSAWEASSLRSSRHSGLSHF

[7] = biological target: Prostaglandin E2 receptor EP2 subtype (Homo sapiens, UniProt P43116); assay: Antagonist activity at human EP2 receptor transfected in CHO/Galpha16 cells preincubated for 15 mins followed by PGE2 addition by calcium flux assay; format: functional, cell-based
[8] = biological target: T2, Prostaglandin E2 receptor EP3 subtype (Homo sapiens, UniProt P43115); assay: Antagonist activity at human EP3 receptor transfected in CHO/Galpha16 cells preincubated for 15 mins followed by PGE2 addition by calcium flux assay; format: functional, cell-based
T2 sequence (P43115 whole entry): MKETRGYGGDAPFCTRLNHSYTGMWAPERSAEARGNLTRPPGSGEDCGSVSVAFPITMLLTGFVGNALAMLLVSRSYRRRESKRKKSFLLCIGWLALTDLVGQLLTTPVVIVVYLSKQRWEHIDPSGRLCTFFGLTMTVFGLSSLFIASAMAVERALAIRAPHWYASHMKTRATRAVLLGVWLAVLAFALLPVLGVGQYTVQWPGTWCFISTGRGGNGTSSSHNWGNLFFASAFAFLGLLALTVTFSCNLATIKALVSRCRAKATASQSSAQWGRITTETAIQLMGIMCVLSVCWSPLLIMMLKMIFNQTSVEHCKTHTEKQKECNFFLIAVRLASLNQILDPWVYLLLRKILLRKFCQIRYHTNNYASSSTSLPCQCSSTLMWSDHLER

[9] = Metabolic stability in human liver microsomes assessed as half life; format: ADME, Microsome
[10] = Metabolic stability in human liver microsomes assessed as intrinsic clearance; format: ADME, Microsome; conditions: read-out: CLH
[11] = Metabolic stability in human liver microsomes assessed as parent compound remaining at 10 uM measured after 60 mins; format: ADME, Microsome; conditions: read-out: Stability
[12] = Metabolic stability in mouse liver microsomes assessed as half life; format: ADME, Microsome
[13] = Metabolic stability in mouse liver microsomes assessed as intrinsic clearance; format: ADME, Microsome; conditions: read-out: CLH
[14] = Metabolic stability in mouse liver microsomes assessed as parent compound remaining at 10 uM measured after 60 mins; format: ADME, Microsome; conditions: read-out: Stability
[15] = biological target: T3, CYP1A2 (Homo sapiens, UniProt P05177); assay: Inhibition of CYP1A2 (unknown origin) at 20 uM; format: ADME
T3 sequence (P05177 whole entry): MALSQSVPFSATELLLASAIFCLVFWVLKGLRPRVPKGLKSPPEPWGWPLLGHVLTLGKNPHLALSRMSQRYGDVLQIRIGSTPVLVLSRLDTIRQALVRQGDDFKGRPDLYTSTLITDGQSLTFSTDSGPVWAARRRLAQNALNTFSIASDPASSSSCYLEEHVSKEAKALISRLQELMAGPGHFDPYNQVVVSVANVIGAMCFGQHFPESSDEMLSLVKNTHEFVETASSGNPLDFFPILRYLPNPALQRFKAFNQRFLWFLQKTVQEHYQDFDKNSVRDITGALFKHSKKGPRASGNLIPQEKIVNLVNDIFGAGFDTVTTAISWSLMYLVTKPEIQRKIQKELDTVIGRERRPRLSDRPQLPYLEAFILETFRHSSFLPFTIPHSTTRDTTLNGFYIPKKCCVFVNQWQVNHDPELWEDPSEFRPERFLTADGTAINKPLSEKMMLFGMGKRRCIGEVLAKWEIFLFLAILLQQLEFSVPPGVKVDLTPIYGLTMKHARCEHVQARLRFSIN

[16] = biological target: T4, CYP2B6 (Homo sapiens, UniProt P20813); assay: Inhibition of CYP2B6 (unknown origin) at 20 uM; format: ADME
T4 sequence (P20813 whole entry): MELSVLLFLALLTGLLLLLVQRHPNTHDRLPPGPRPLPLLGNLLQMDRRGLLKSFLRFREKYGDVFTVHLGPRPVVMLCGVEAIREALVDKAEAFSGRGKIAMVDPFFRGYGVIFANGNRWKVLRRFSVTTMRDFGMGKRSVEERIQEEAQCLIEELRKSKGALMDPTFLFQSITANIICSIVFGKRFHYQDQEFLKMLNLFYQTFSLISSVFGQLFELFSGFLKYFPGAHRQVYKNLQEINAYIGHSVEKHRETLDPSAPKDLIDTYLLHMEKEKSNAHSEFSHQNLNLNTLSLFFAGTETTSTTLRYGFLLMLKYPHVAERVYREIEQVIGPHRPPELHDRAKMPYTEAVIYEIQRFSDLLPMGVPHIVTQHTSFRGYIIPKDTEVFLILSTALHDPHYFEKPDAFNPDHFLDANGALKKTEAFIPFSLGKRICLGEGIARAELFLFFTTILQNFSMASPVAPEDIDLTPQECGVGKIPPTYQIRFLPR

[17] = biological target: CYP2D6 (Homo sapiens, UniProt P10635); assay: Inhibition of CYP2D6 (unknown origin) at 20 uM; format: ADME
[18] = biological target: CYP2E1 (Homo sapiens, UniProt P05181); assay: Inhibition of CYP2E1 (unknown origin) at 20 uM; format: ADME
[19] = test system: CT26; assay: Cytotoxicity against mouse CT26 cells assessed as reduction in cell viability incubated for 72 hrs by CCK-8 assay; conditions: CT26, 72 h
[20] = test system: Panc02; assay: Cytotoxicity against mouse Panc02 cells assessed as reduction in cell viability incubated for 72 hrs by CCK-8 assay; conditions: Panc02, 72 h
[21] = Cytotoxicity against HEK293 cells assessed as reduction in cell viability incubated for 72 hrs by CCK-8 assay; format: toxicity, cell-based; conditions: human
[22] = test system: CT26; assay: Antitumor activity against mouse CT26 cells allografted in BALB/c mouse assessed as tumor growth inhibition at 75 mg/kg, po administered once a day for 14 days; format: functional; conditions: CT26, 336 h, time 14 day, read-out: TGI

CYP2E1, sequence (P05181 whole entry): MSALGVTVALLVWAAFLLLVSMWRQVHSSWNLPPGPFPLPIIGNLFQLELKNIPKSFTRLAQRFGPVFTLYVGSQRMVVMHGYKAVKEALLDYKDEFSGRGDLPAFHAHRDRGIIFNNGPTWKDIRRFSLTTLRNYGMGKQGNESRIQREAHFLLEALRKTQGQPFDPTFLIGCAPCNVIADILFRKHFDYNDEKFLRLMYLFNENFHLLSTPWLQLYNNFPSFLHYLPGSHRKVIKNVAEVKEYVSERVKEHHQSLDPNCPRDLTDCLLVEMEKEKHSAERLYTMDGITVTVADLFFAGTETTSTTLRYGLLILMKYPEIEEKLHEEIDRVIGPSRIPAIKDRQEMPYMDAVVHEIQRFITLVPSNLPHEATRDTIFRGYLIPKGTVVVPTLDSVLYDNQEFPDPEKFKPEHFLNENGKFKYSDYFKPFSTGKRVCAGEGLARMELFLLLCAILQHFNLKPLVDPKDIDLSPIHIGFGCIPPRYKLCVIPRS
CYP2C9, sequence (P11712 whole entry): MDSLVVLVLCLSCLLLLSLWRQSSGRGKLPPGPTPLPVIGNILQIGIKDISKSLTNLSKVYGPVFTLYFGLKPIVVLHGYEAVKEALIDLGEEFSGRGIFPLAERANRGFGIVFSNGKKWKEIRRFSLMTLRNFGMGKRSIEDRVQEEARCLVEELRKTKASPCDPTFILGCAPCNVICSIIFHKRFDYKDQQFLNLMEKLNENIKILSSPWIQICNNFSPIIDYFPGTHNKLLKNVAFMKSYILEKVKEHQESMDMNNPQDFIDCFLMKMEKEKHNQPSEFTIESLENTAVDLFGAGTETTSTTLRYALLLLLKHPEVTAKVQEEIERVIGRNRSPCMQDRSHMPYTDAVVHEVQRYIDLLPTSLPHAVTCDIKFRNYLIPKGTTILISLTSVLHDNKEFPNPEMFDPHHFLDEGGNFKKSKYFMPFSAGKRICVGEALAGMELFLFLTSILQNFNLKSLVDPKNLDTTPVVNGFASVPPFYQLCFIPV
Prostaglandin E2 receptor EP4 subtype (Mus musculus, UniProt P32240), sequence (P32240 whole entry): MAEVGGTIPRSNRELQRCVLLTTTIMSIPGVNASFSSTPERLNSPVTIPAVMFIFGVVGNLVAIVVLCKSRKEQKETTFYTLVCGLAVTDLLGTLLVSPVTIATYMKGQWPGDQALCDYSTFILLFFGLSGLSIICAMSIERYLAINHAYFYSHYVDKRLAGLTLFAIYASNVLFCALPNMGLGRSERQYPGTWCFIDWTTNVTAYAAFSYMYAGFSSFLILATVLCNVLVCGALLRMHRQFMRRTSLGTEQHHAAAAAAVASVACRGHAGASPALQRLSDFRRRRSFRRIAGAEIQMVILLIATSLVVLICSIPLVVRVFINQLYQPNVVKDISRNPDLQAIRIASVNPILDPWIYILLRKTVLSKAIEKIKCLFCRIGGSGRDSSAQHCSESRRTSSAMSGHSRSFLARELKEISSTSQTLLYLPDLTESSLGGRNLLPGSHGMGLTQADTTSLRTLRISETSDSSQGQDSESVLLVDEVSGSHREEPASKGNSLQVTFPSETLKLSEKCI
CYP2D6, sequence (P10635 whole entry): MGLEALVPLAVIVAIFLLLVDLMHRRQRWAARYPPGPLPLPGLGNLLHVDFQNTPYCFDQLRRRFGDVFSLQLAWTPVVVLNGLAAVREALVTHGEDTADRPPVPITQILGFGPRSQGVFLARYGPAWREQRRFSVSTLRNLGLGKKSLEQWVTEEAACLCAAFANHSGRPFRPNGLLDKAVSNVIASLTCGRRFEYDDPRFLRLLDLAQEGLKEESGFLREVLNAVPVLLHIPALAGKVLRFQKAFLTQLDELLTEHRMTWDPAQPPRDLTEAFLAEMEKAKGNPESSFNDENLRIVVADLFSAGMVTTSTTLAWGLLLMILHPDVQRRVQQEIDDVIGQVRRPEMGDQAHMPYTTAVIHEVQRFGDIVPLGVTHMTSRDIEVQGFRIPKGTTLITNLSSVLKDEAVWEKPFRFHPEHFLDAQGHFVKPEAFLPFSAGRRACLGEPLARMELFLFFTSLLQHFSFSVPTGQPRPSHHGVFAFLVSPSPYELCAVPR
Prostaglandin E2 receptor EP4 subtype (Homo sapiens, UniProt P35408), sequence (P35408 whole entry): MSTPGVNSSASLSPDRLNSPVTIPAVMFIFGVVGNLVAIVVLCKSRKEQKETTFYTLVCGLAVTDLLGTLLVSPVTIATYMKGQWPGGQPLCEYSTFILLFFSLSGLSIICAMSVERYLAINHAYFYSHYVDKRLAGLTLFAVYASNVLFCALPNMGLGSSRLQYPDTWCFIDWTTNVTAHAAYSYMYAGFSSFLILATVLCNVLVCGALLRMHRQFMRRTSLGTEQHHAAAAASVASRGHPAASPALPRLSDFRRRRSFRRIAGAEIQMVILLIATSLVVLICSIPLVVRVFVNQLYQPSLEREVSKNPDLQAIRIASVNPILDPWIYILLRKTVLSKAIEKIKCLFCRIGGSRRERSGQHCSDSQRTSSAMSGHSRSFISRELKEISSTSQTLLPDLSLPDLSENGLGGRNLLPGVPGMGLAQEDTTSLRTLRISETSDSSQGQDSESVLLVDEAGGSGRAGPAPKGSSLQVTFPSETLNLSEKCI
Prostaglandin E2 receptor EP2 subtype, sequence (P43116 whole entry): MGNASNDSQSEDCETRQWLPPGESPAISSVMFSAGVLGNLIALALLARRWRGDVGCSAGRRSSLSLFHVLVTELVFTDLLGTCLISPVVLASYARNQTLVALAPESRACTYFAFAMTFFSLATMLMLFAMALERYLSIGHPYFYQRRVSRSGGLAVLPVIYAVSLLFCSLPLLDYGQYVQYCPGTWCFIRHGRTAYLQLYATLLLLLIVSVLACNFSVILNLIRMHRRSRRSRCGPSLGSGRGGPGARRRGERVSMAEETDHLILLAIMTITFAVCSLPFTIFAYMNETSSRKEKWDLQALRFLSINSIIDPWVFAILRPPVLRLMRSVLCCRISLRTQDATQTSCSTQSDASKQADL

SMILES: CC(=O)N1CCc2c(sc(CCc3ccc(F)cc3)c2C(=O)N[C@@H](C)c2ccc(C(=O)O)cc2)C1
- IC50 [1]: > 1000 nM

SMILES: C[C@H](NC(=O)c1c(CCc2ccc(F)cc2)sc2c1CCOC2)c1ccc(C(=O)O)cc1
- IC50 [2]: > 100000 nM
- IC50 [3]: > 100000 nM
- inhibition at 20 µM [4]: 58%
- IC50 [1]: 19.1 nM
- IC50 [5]: 50.1 nM
- IC50 [6]: > 10000 nM
- IC50 [7]: > 10000 nM
- IC50 [8]: > 10000 nM
- half-life [9]: 0.81 h
- microsomal CLint [10]: 28.5 µL/min/mg
- remaining at 1 h, 10 µM [11]: 40.7%
- half-life [12]: > 2.42 h
- microsomal CLint [13]: < 9.6 µL/min/mg
- remaining at 1 h, 10 µM [14]: 75.7%
- inhibition at 20 µM [15]: 88%
- inhibition at 20 µM [16]: 76%
- inhibition at 20 µM [17]: 76%
- inhibition at 20 µM [18]: 39%
- IC50 [19]: > 100000 nM
- IC50 [20]: > 100000 nM
- IC50 at 72 h [21]: > 100000 nM

SMILES: C[C@H](NC(=O)c1c(Cc2cccc(Cl)c2)sc2c1CCOC2)c1ccc(C(=O)O)cc1
- IC50 [1]: 3.2 nM

SMILES: C[C@H](NC(=O)c1c(C#Cc2ccc(=O)[nH]c2)sc2c1CCOC2)c1ccc(C(=O)O)cc1
- IC50 [1]: 642 nM

SMILES: COc1cccc(C#Cc2sc3c(c2C(=O)N[C@@H](C)c2ccc(C(=O)O)cc2)CCOC3)c1
- IC50 [1]: 12.4 nM

SMILES: C[C@H](NC(=O)c1c(Cc2cccc(F)c2)sc2c1CCOC2)c1ccc(C(=O)O)cc1
- IC50 [1]: 5.1 nM

SMILES: C[C@H](NC(=O)c1c(Cc2ccc(C(C)(C)C)cc2)sc2c1CCOC2)c1ccc(C(=O)O)cc1
- IC50 [1]: 9.5 nM

SMILES: C[C@H](NC(=O)c1c(CCc2ccc(F)cc2)sc2c1CC(C)(C)OC2)c1ccc(C(=O)O)cc1
- IC50 [1]: 36.2 nM

SMILES: O=C(O)c1ccc(C2(NC(=O)c3c(Cc4cccc(C(F)(F)F)c4)sc4c3CCOC4)CC2)cc1
- IC50 [1]: 1 nM

SMILES: CC(C)c1ccc(Cc2sc3c(c2C(=O)N[C@@H](C)c2ccc(C(=O)O)cc2)CCOC3)cc1
- IC50 [1]: 2.7 nM

SMILES: COC(=O)c1ccc([C@H](C)NC(=O)c2c(Cc3ccc(F)cc3)sc3c2CCOC3)cc1
- IC50 [1]: > 1000 nM

SMILES: CON(C)C(=O)c1ccc([C@H](C)NC(=O)c2c(Cc3ccc(F)cc3)sc3c2CCOC3)cc1
- IC50 [1]: 187 nM

SMILES: COc1ccc(Cc2sc3c(c2C(=O)N[C@@H](C)c2ccc(C(=O)O)cc2)CCOC3)cc1
- IC50 [1]: 2.1 nM
- IC50 [6]: > 10000 nM
- IC50 [7]: > 10000 nM
- IC50 [8]: > 10000 nM

SMILES: C[C@H](NC(=O)c1c(Cc2ccc(C(F)(F)F)cc2)sc2c1CCOC2)c1ccc(C(=O)O)cc1
- IC50 [2]: > 100000 nM
- IC50 [3]: > 100000 nM
- inhibition at 20 µM [4]: 24%
- IC50 [1]: 2.1 nM
- IC50 [5]: 336 nM
- IC50 [6]: > 10000 nM
- IC50 [7]: > 10000 nM
- IC50 [8]: > 10000 nM
- half-life [9]: > 2.42 h
- microsomal CLint [10]: < 9.6 µL/min/mg
- remaining at 1 h, 10 µM [11]: 90%
- half-life [12]: > 2.42 h
- microsomal CLint [13]: < 9.6 µL/min/mg
- remaining at 1 h, 10 µM [14]: 87.9%
- inhibition at 20 µM [15]: 69%
- inhibition at 20 µM [16]: 68%
- inhibition at 20 µM [17]: 62%
- inhibition at 20 µM [18]: 26%
- IC50 [19]: > 100000 nM
- IC50 [20]: > 100000 nM
- IC50 at 72 h [21]: > 100000 nM

SMILES: C[C@H](NC(=O)c1c(C(F)F)nn(C)c1Oc1cccc(C(F)(F)F)c1)c1ccc(C(=O)O)cc1 [PALUPIPRANT]
- inhibition at 20 µM [4]: 33%
- IC50 [5]: 101 nM
- half-life [9]: > 2.42 h
- microsomal CLint [10]: < 9.6 µL/min/mg
- remaining at 1 h, 10 µM [11]: 83.6%
- half-life [12]: > 2.42 h
- microsomal CLint [13]: < 9.6 µL/min/mg
- remaining at 1 h, 10 µM [14]: 95.7%
- inhibition at 20 µM [15]: 59%
- inhibition at 20 µM [16]: 77%
- inhibition at 20 µM [17]: 65%
- inhibition at 20 µM [18]: 21%
- IC50 at 72 h [21]: > 100000 nM
- inhibition in vivo at 75 mg/kg [22]: 39.9%
